# Assays:
# M. morganii = assay: Molecular phenotypic antimicrobial susceptibility test, specimen with two detected pathogens incubated together without isolation; format: cell-based, Morganella morganii; conditions: M. morganii in specimen with two detected pathogens (E. coli and M. morganii) incubated together
# In short: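 Specimen in boric acid; pathogens identified by PCR while a parallel aliquot grew 4-6 h in liquid medium. With >10,000 cells/mL detected, culture diluted to 0.5 McFarland and exposed to antimicrobials in broth (e.g. Mueller Hinton) at breakpoint concentrations; both pathogens incubated together unisolated, growth read by molecular methods against medium-only wells.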
# pathogen of the specimen = assay: Molecular phenotypic antimicrobial susceptibility test with direct PCR at various incubation timepoints (Table 7); format: cell-based
# In short: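 Specimens with known microbial load are cultured, diluted to 0.5 McFarland using optical density, then exposed to antimicrobials prepared in liquid culture media (e.g., Muller Hinton Broth) at their established sensitivity breakpoint concentrations. After incubation, samples are lysed with buffer in a thermal cycler and analyzed by direct semi-quantitative PCR, with antimicrobial-free control wells serving as the susceptibility threshold.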
structure (smiles),measurement,setting,value
CO/N=C(\C(=O)N[C@@H]1C(=O)N2C(C(=O)[O-])=C(C[N+]3(C)CCCC3)CS[C@H]12)c1csc(N)n1 [Cefepime],Ct of Sensitive Breakpoint,M. morganii; Ct of controls (average) 19.99,29.72
same,Molecular Antimicrobial Susceptibility Result,M. morganii; at sensitive breakpoint,Sensitive (Antimicrobial wells with pathogen load detected below the control wells (typically >2 cycle thresholds later) may be reported as Sensitive)
same,Molecular Antimicrobial Susceptibility Result,"pathogen of the specimen; E. coli isolate 1189, antibiotic incubation time 4 hours",Sensitive (Antimicrobial wells with pathogen load detected below the control wells (typically >2 cycle thresholds later) may be reported as Sensitive)
same,Ct at Sensitive Breakpoint,"pathogen of the specimen; E. coli isolate 1189, antibiotic incubation time 4 hours, control average Ct […]",20.399
same,Molecular Antimicrobial Susceptibility Result,"pathogen of the specimen; E. coli isolate 1189, antibiotic incubation time 6 hours",Sensitive (Antimicrobial wells with pathogen load detected below the control wells (typically >2 cycle thresholds later) may be reported as Sensitive)
same,Ct at Sensitive Breakpoint,"pathogen of the specimen; E. coli isolate 1189, antibiotic incubation time 6 hours, control average Ct 16.992",20.178
same,Molecular Antimicrobial Susceptibility Result,"pathogen of the specimen; E. coli isolate 1189, antibiotic incubation time 8 hours",Sensitive (Antimicrobial wells with pathogen load detected below the control wells (typically >2 cycle thresholds later) may be reported as Sensitive)
same,Ct at Sensitive Breakpoint,"pathogen of the specimen; E. coli isolate 1189, antibiotic incubation time 8 hours, control average Ct […]",21.204
same,Molecular Antimicrobial Susceptibility Result,"pathogen of the specimen; E. coli isolate 1189, antibiotic incubation time 10 hours",Sensitive (Antimicrobial wells with pathogen load detected below the control wells (typically >2 cycle thresholds later) may be reported as Sensitive)
same,Ct at Sensitive Breakpoint,"pathogen of the specimen; E. coli isolate 1189, antibiotic incubation time 10 hours, control average Ct 15.995",21.613
same,Molecular Antimicrobial Susceptibility Result,"pathogen of the specimen; E. coli isolate 1189, antibiotic incubation time 12 hours",Sensitive (Antimicrobial wells with pathogen load detected below the control wells (typically >2 cycle thresholds later) may be reported as Sensitive)
same,Ct at Sensitive Breakpoint,"pathogen of the specimen; E. coli isolate 1189, antibiotic incubation time 12 hours, control average Ct 15.495",22.447
same,Molecular Antimicrobial Susceptibility Result,"pathogen of the specimen; E. coli isolate 1189, antibiotic incubation time 14 hours",Sensitive (Antimicrobial wells with pathogen load detected below the control wells (typically >2 cycle thresholds later) may be reported as Sensitive)
same,Ct at Sensitive Breakpoint,"pathogen of the specimen; E. coli isolate 1189, antibiotic incubation time 14 hours, control average Ct 15.826",22.420
same,Molecular Antimicrobial Susceptibility Result,"pathogen of the specimen; E. coli isolate 1189, antibiotic incubation time 16 hours",Sensitive (Antimicrobial wells with pathogen load detected below the control wells (typically >2 cycle thresholds later) may be reported as Sensitive)
same,Ct at Sensitive Breakpoint,"pathogen of the specimen; E. coli isolate 1189, antibiotic incubation time 16 hours, control average Ct 14.880",23.502
